Source: patent publication EP0782988A1, “INDOLE DERIVATIVES” (KYOWA HAKKO KOGYO CO., LTD., priority 1995, dated 1997)

Test system: ovariectomized rats
Assay: Inhibitory effect on the increase of urinary hydroxyproline excretion by ovariectomy (Test Example 1)
Assay type: in vivo, SD strain rats
Conditions: Rattus norvegicus, po, 336 h; ovariectomized female SD rats; test compound 10 mg/kg suspended in 0.3% Tween, orally once a day for two weeks; 24 h urine, hydroxyproline/creatinine molar ratio; versus ovariectomized control and sham-operated rats; read-out: Inhibition rate of increase of the amount of urinary hydroxyproline excretion
Description: The inhibitory effect of the compounds of the present application on bone resorption was determined by their inhibitory effect on the excretion of urinary hydroxyproline which is elevated by ovariectomy of the animals tested, according to the report of Kalu et al. [Bone and Mineral., 14, 175 (1991)].
Test Example 1: Inhibitory effect on the increase of urinary hydroxyproline excretion by ovariectomy
12-weeks-old female SD strain rats (Japan Clea Co., Ltd.) were acclimated for 1 week during which they were given tap water and a standard diet (F2; Funabashi Farmas) ad libitum. The experiment was carried out using the rats weighing 270-310 g. After the animals were subjected to sham operation or bilateral ovariectomy, they were allowed free access to water passed through ion exchange resin instead of tap water, and were housed in individual cages. The test compound (10 mg/kg) was suspended in 0.3% Tween, and the obtained suspension was orally administered to the ovariectomized rats once a day for two weeks starting from the day following ovariectomy (0.5 ml/100 g body weight). 0.3% Tween was similarly administered to sham-operated rats and ovariectomized control rats. After the final administration, the rats were placed in individual metabolic cages and fasted during 24 hours, and urine was collected. The volume of the collected urine was measured and the urine was centrifuged at 3,000 rpm for 15 min at 4°C. The concentration of hydroxyproline in the supernatant was measured by the method of Ikeda et al. [Ann. Rep. Tokyo Metr. Res. Lab. P. H., 36, 277-282 (1985)] and the concentration of creatinine in the supernatant was measured with creatinine test WAKO (Wako Pure Chem.) The amount of urinary hydroxyproline excretion was expressed by the molar ratio of the amount of hydroxyproline to the amount of creatinine. The rate of inhibition on increase of the amount of urinary hydroxyproline excretion in ovariectomized rats treated with the test compound compared to that of the control group was calculated using the following equation. Inhibition rate (%) = [(P1 - P2)/(P1 - P3)] x 100 [formula] • P1 : The amount of urinary hydroxyproline excretion in ovariectomized rats treated with 0.3% Tween (µmol/mmol). • P2 : The amount of urinary hydroxyproline excretion in ovariectomized rats treated with the test compound (µmol/mmol). • P3 : The amount of urinary hydroxyproline in sham-operated rats treated with 0.3% Tween (µmol/mmol).

Compound CN(C)CCN(C)C(=O)c1c(C(c2ccc(O)cc2)c2ccc(O)cc2)c2ccccc2n1CCN(C)C [Compound 22, N-(2-Dimethylaminoethyl)-N-methyl-3-[bis(4-hydroxyphenyl)methyl]-1-(2-dimethylaminoethyl)indole-2-carboxamide] has an inhibition in vivo at 10 mg/kg of 100%.
CN(C)CCn1c(C(=O)NCCN2CCCCC2)c(C(c2ccc(O)cc2)c2ccc(O)cc2)c2ccccc21 [Compound 25, N-(2-Piperidinoethyl)-3-[bis(4-hydroxyphenyl)methyl]-1-(2-dimethylaminoethyl)indole-2-carboxamide] gave an inhibition in vivo at 10 mg/kg of 100%.
CN(C)CCn1c(C(=O)NCCCN2CCOCC2)c(C(c2ccc(O)cc2)c2ccc(O)cc2)c2ccccc21 [Compound 27, N-(3-Morpholinopropyl)-3-[bis(4-hydroxyphenyl)methyl]-1-(2-dimethylaminoethyl)indole-2-carboxamide] gave an inhibition in vivo at 10 mg/kg of 30%.
For CN(C)CCn1c(C(=O)NCc2cccnc2)c(C(c2ccc(O)cc2)c2ccc(O)cc2)c2ccccc21 [Compound 29, N-(3-Pyridylmethyl)-3-[bis(4-hydroxyphenyl)methyl]-1-(2-dimethylaminoethyl)indole-2-carboxamide], the inhibition in vivo at 10 mg/kg was 30%.
CN(C)CCn1c(C(=O)NCc2ccncc2)c(C(c2ccc(O)cc2)c2ccc(O)cc2)c2ccccc21 [Compound 30, N-(4-Pyridylmethyl)-3-[bis(4-hydroxyphenyl)methyl]-1-(2-dimethylaminoethyl)indole-2-carboxamide] was tested, and the inhibition in vivo at 10 mg/kg was 100%.
With CN(C)CCn1c(C(=O)NCCc2ccncc2)c(C(c2ccc(O)cc2)c2ccc(O)cc2)c2ccccc21 [Compound 32, N-[2-(4-Pyridyl)ethyl]-3-[bis(4-hydroxyphenyl)methyl]-1-(2-dimethylaminoethyl)indole-2-carboxamide] the inhibition in vivo at 10 mg/kg was 100%.
CCN1CCCC1CNC(=O)c1c(C(c2ccc(O)cc2)c2ccc(O)cc2)c2ccccc2n1CCN(C)C (stereo not drawn) [Compound 33, N-[(1-Ethyl-2-pyrrolidinyl)methyl]-3-[bis(4-hydroxyphenyl)methyl]-1-(2-dimethylaminoethyl)indole-2-carboxamide] gave an inhibition in vivo at 10 mg/kg of 100%.
CN(C)CCn1c(C(=O)NCCC2CCCN2C)c(C(c2ccc(O)cc2)c2ccc(O)cc2)c2ccccc21 (stereo not drawn) [Compound 34, N-[2-(1-Methyl-2-pyrrolidinyl)ethyl]-3-[bis(4-hydroxyphenyl)methyl]-1-(2-dimethylaminoethyl)indole-2-carboxamide] was tested, and the inhibition in vivo at 10 mg/kg was 100%.
For CN(C)CCn1c(C(=O)NCC2CCCO2)c(C(c2ccc(O)cc2)c2ccc(O)cc2)c2ccccc21 (stereo not drawn) [Compound 37, N-(2-Tetrahydrofuranylmethyl)-3-[bis(4-hydroxyphenyl)methyl]-1-(2-dimethylaminoethyl)indole-2-carboxamide], the inhibition in vivo at 10 mg/kg was 100%.
